According to article PMC9189845, “Structure–Activity Relationships of 8-Hydroxyquinoline-Derived Mannich Bases with Tertiary Amines Targeting Multidrug-Resistant Cancer” (Journal of Medicinal Chemistry, 2022):
Read-outs that look alike come from different tables or passages of the source.

Legend:
[1] = UV-visible spectrophotometric titrations (pKa); type: physicochemical; details: 25 °C; for pKa: water with 0.2% (v/v) DMSO
Experimental: Spectrophotometrical determination of pKa values was performed as previously reported.[20],[50] An Agilent Cary 8454 diode array spectrophotometer was used to record the UV–visible spectra in the interval 200–800 nm. The path length was between 1 and 5 cm. The spectrophotometric titrations were performed in water with 0.2% (v/v) DMSO on samples containing the compounds at 2–50 μM in the pH range from 2 to 11.5 at 25.0 ± 0.1 °C at an ionic strength of 0.10 M (KCl). Proton dissociation constants and the individual spectra of the species in the different protonation states were calculated with the computer program PSEQUAD.[62]

MES-SA cells = test: PrestoBlue viability assay, MES-SA cells
MES-SA/Dx5 cells = test: PrestoBlue viability assay, MES-SA/Dx5 cells (MDR, P-gp positive); details: for SR: selectivity ratio MES-SA vs MES-SA/Dx5, without TQ; for SR_TQ: selectivity ratio MES-SA vs MES-SA/Dx5, with TQ
A431 cells = test: PrestoBlue viability assay, A431 cells
A431-B1 cells = test: PrestoBlue viability assay, A431-B1 (A431-ABCB1) cells
[2] = 0.2% DMSO, I = 0.10 M KCl, read-out: pKa (OH), experimentally determined
[3] = piperidinium / pyrrolidinium / morpholinium N, read-out: pKa (other; N+amH alkylamine nitrogen), experimentally determined
[4] = quinolinium nitrogen, I = 0.10 M KCl, read-out: pKa (NquinH+), experimentally determined
[5] = Homo sapiens, MES-SA, 72 h, read-out: IC50 / μM MES-SA, absence of TQ, 72 h incubation
[6] = Homo sapiens, MES-SA, read-out: pIC50 value MES-SA, MES-SA cells, without TQ (converted)
[7] = Homo sapiens, MES-SA/Dx5, 72 h, read-out: IC50 / μM MES-SA/Dx5, absence of TQ, 72 h incubation
[8] = Homo sapiens, MES-SA/Dx5, read-out: pIC50 value MES-SA/Dx5, MES-SA/Dx5 cells, without TQ (converted)
[9] = Homo sapiens, MES-SA, read-out: IC50 / μM MES-SA (values in parentheses), presence of 1 μM P-gp inhibitor tariquidar (TQ)
[10] = Homo sapiens, MES-SA, read-out: pIC50 value MES-SA+TQ, MES-SA cells, with TQ (converted)
[11] = Homo sapiens, A-431, 72 h, read-out: IC50 / µM A431, 72 h incubation
[12] = Homo sapiens, A-431, read-out: pIC50 A431, SARM figure (converted)
[13] = 72 h, read-out: IC50 / µM A431-B1, 72 h incubation
[14] = read-out: pIC50 A431-B1, SARM figure (converted)
[15] = Homo sapiens, MES-SA/Dx5, read-out: IC50 / μM MES-SA/Dx5 (values in parentheses), presence of 1 μM P-gp inhibitor tariquidar (TQ)
[16] = Homo sapiens, MES-SA/Dx5, read-out: pIC50 value MES-SA/Dx5 + TQ, MES-SA/Dx5 cells, with TQ (converted)
[17] = read-out: pKa (NpiperaziniumH+ closer to quinoline ring), experimentally determined
[18] = read-out: IC50 / µM A431, 72 h incubation
[19] = read-out: IC50 / µM A431-B1, 72 h incubation

| SMILES | pKa [1, 2] | pKa [1, 3] | pKa [1, 4] | IC50 (MES-SA cells; [5]) [µM] | IC50 (MES-SA cells; [6]) [µM] | IC50 (MES-SA/Dx5 cells; [7]) [µM] | IC50 (MES-SA/Dx5 cells; [8]) [µM] | SR (MES-SA/Dx5 cells) | IC50 (MES-SA cells; [9]) [µM] | IC50 (MES-SA cells; [10]) [µM] | IC50 (A431 cells; [11]) [µM] | IC50 (A431 cells; [12]) [µM] | IC50 (A431-B1 cells; [13]) [µM] | IC50 (A431-B1 cells; [14]) [µM] | IC50 (MES-SA/Dx5 cells; [15]) [µM] | IC50 (MES-SA/Dx5 cells; [16]) [µM] | SR_TQ (MES-SA/Dx5 cells) | other results |
| --- | --- | --- | --- | --- | --- | --- | --- | --- | --- | --- | --- | --- | --- | --- | --- | --- | --- | --- |
| Oc1c(CN2CCCc3ccccc32)ccc2cccnc12 [Compound 79] | 9.98 ± 0.03 | 1.7 ± 0.1 | 4.45 ± 0.03 | 10.1 ± 0.38 | 10 | 13.5 ± 0.7 | 13.5 | 0.75 |  |  |  |  |  |  |  |  |  | pKa (other; N+amH alkylamine nitrogen), experimentally determined ([1]; piperidinium / pyrrolidinium / morpholinium N, water): 1.69 |
| Oc1c(CN2CCCCC2)cc(Br)c2cccnc12 [Compound 20, 5-Bromo-7-(piperidin-1-ylmethyl)quinolin-8-ol] | 7.16 ± 0.03 | > 11 | 1.8 ± 0.1 | 1.79 ± 0.16 | 1.78 | 0.17 ± 0.02 | 0.166 | 10.67 | 1.71 | 1.7 | 6.91 ± 1.37 | 6.76 | 2.16 ± 0.35 | 1.58 | 1.32 ± 0.08 | 1.32 | 1.29 | IC50 (MES-SA cells; read-out: IC50 / μM MES-SA, absence of TQ, 72 h incubation): 1.78 ± 0.17 µM; IC50 (MES-SA/Dx5 cells; read-out: IC50 / μM MES-SA/Dx5 (values in parentheses), presence of 1 μM P-gp inhibitor tariquidar (TQ)): 1.33 µM; IC50 (MES-SA/Dx5 cells; read-out: IC50 / μM MES-SA/Dx5, absence of TQ, 72 h incubation): 0.16 ± 0.02 µM |
| Oc1c(C(c2ccccn2)N2CCOCC2)cc(Cl)c2cccnc12 (centres unmarked) [Compound 108] | 9.42 ± 0.03 | 5.53 ± 0.03 | 1.89 ± 0.03 | 40 ± 9.54 | 38.9 | 24.7 ± 4.26 | 24.5 | 1.62 |  |  |  |  |  |  |  |  |  | pKa ([1]; read-out: pKa (NpyridiniumH+), experimentally determined): < 2 |
| CC(C)OCc1cc(CN2CCCCC2)c(O)c2ncccc12 [Compound 24] | 7.66 ± 0.03 | > 11 | 2.43 ± 0.03 | 6.03 ± 0.29 | 6.03 | 0.48 ± 0.04 | 0.479 | 12.57 | 5.76 ± 0.15 | 5.75 | 7.53 ± 1 | 7.41 | 1.91 ± 0.18 | 1.91 | 4.37 ± 0.24 | 4.37 | 1.32 |  |
| Oc1ccc(CN2CCN(c3ccccc3)CC2)c2cccnc12 [Compound 57] | 8.88 ± 0.03 |  | 3.63 ± 0.03 | 3.67 ± 0.35 | 3.63 | 4.19 ± 0.15 | 4.17 | 0.88 |  |  |  |  |  |  |  |  |  | pKa [1, 17]: 6.69 ± 0.03 |
| Oc1ccc(CN2CCCCC2)c2cccnc12 [Compound 47] | 8.45 ± 0.03 | 10.23 ± 0.03 | 3.83 ± 0.03 | 7.45 ± 0.06 | 7.41 | 4.36 ± 0.4 | 4.37 | 1.71 |  |  |  |  |  |  |  |  |  |  |
| Oc1c(C(c2ccccc2)N2CCCCC2)cc(Cl)c2cccnc12 (centres unmarked) [Compound 97] | 6.46 ± 0.03 | 10.75 ± 0.03 | 1.7 ± 0.1 | 14.9 ± 0.18 | 14.8 | 14 ± 0.15 | 13.8 | 1.06 |  |  |  |  |  |  |  |  |  |  |
| Oc1c(C(c2ccccn2)N2CCCCC2)cc(Cl)c2cccnc12 (centres unmarked) [Compound 98] |  |  |  | 31.9 ± 1.55 | 31.6 | 16.6 ± 0.88 | 16.6 | 1.92 |  | 33.1 |  | 50.1 |  | 24 |  | 13.5 | 2.45 |  |
| CCN1CCN(Cc2ccc(O)c3ncccc23)CC1 [Compound 55] | 9.67 ± 0.03 |  | 4.94 ± 0.03 | 17.7 ± 3.14 | 17.4 | 21.38 ± 0.1 | 21.4 | 0.83 |  |  |  |  |  |  |  |  |  | pKa ([1]; read-out: pKa (NpiperaziniumH+ at methyl / N-ethyl), experimentally determined): 5.48 ± 0.03; pKa [1, 17]: 2.6 ± 0.03 |
| CCOC(=O)C1CCN(Cc2cc(Cl)c3cccnc3c2O)CC1 [Compound 49] |  |  |  | 1.78 ± 0.12 | 1.78 | 0.18 ± 0.03 | 0.178 | 9.91 | 1.7 | 1.7 | 8.57 ± 2.94 | 8.13 | 1.99 ± 0.25 | 2 | 0.98 | 0.977 | 1.73 |  |
| O=[N+]([O-])c1cc(CN(CCO)CCO)c(O)c2ncccc12 [Compound 7] |  |  |  | 6.46 ± 0.49 | 6.46 | 4.33 ± 0.2 | 4.37 | 1.49 |  |  | 9.79 ± 1.13 |  | 9.18 ± 0.58 |  |  |  |  | SR (A431 / A431-B1) (A431-B1 cells; fraction of IC50 in P-gp negative vs positive cells): 1.07 |
| CCN(CC)Cc1cc(Cl)c2cccnc2c1O [Compound 5] |  |  |  | 2.97 ± 0.33 | 2.95 | 0.35 ± 0.06 | 0.347 | 8.44 | 3.25 | 3.24 | 9.29 ± 1.55 | 9.33 | 1.58 ± 1.11 | 1.48 | 1.82 | 1.82 | 1.78 | IC50 (A431 cells; [18]): 10 ± 4.2 µM; IC50 (A431-B1 cells; [19]): 1.52 ± 0.32 µM |
| CCOCc1cc(CN2CCN(c3ccccc3)CC2)c(O)c2ncccc12 [Compound 40] |  |  |  | 1.27 ± 0.15 | 1.26 | 0.34 ± 0.04 | 0.339 | 3.72 | 1.62 ± 0.005 | 1.62 | 6.24 ± 1.95 | 5.89 | 1.94 ± 0.19 | 1.91 | 1.05 ± 0.1 | 1.05 | 1.54 |  |
| CCOCc1cc(CN2CCOCC2)c(O)c2ncccc12 [Compound 32] |  |  |  | 5.85 ± 0.54 | 5.75 | 3 ± 0.3 | 2.95 | 1.95 |  |  | 24.7 ± 10.9 | 22.4 | 5.58 ± 0.58 | 5.5 |  |  |  |  |
| COCc1cc(CN2CCC(C)CC2)c(O)c2ncccc12 [Compound 26] |  |  |  | 6.2 ± 0.66 | 6.17 | 0.58 ± 0.05 | 0.575 | 10.73 | 6.47 ± 0.41 | 6.46 | 14.5 ± 3.84 | 13.8 | 2.29 ± 0.28 | 2.29 | 4.68 ± 0.16 | 4.68 | 1.38 |  |
| CCN(CC)Cc1ccc2cccnc2c1O [Compound 1] |  |  |  | 7.35 ± 1.28 | 7.24 | 1.64 ± 0.24 | 1.62 | 4.49 | 5.15 | 5.13 | 14.8 ± 0.41 | 13.5 | 4.51 ± 0.73 | 5.01 | 3.04 | 3.02 | 1.69 | IC50 (A431 cells; [18]): 13.4 ± 0.18 µM; IC50 (A431-B1 cells; [19]): 4.99 ± 0.52 µM |
| COCc1ccc(O)c2ncccc12 [Compound 14] | 9.43 ± 0.03 |  | 4.64 ± 0.03 | 2.51 ± 0.13 | 2.51 | 1.79 ± 0.09 | 1.78 | 1.4 |  |  |  |  |  |  |  |  |  |  |
| Oc1c(CN2CCCC2)cc(Cl)c2cccnc12 [Compound 15] |  |  |  | 3.46 ± 0.51 | 3.39 | 0.3 ± 0.06 | 0.295 | 11.53 | 4.34 | 4.27 | 7.45 ± 0.15 | 7.41 | 1.97 ± 0.25 | 1.95 | 3.21 | 3.16 | 1.35 |  |
| CCCOCc1cc(CN2CCN(C)CC2)c(O)c2ncccc12 [Compound 37] |  |  |  | 13.5 ± 0.86 | 13.5 | 3.24 ± 0.19 | 3.24 | 4.17 | 12.3 ± 0.28 | 12.3 | 19.9 ± 9.14 | 18.2 | 6.19 ± 1.73 | 5.89 | 7.41 ± 0.01 | 7.41 | 1.66 |  |
